Experimental data: patent US10130590B2, “Methods of treating cancer with atovaquone-related compounds” (DANA-FARBER CANCER INSTITUTE, INC., priority 2013, dated 2018)
“Also recorded” adds a separate entry of the source.

Key:
[1] = system: U266 human multiple myeloma cells; assay: U266 multiple myeloma xenograft in NSG mice; assay type: in vivo; conditions: 200 mg/kg daily by oral gavage
Protocol: Female NSG mice (obtained from The Jackson Laboratory, Bar Harbor, Me.) were injected subcutaneously with 5×10^6 U266 cells in 30% Matrigel, and tumors were allowed to grow to a volume of approximately 100 mm^3. At that point, animals were treated daily by oral gavage with either vehicle (5% benzyl alcohol in water), generic atovaquone, or Mepron® brand atovaquone (GlaxoSmithKline LLC, Philadelphia, Pa.) at a dose of 200 mg/kg.

[2] = clinical use; cited from earlier work
gp130 mRNA = gp130 mRNA expression (qRT-PCR); assay type: cell-based; conditions: MEF, MDA-MB, SKBR3, U266; 25 μM, 12 hours
Protocol: Total RNA was reverse transcribed using random hexamers and assayed by qRT-PCR as previously described (see, Grivennikov S I, Greten F R, & Karin M (2010) Immunity, inflammation, and cancer. Cell 140(6):883-899).
MEF, MDA-MB-468, and SKBR3 cells were treated with atovaquone (25 μM) for 6 or 12 hours, then analyzed by Western blot for expression of gp130 and various other receptors. […] In contrast, levels of other receptors—such as PDGFR-β, EGFR, HER2, and IGF1R-β—were not affected, again indicating a specific effect on gp130. […] In summary, atovaquone rapidly induces specific loss of cell-surface gp130, while total gp130 declines secondarily due to protein degradation.

K562 and U266 cells = assay: Gene expression microarrays and qRT-PCR for atovaquone-induced genes; assay type: cell-based
Protocol: Gene expression was analyzed in triplicate, normalized by 18S rRNA, and expressed as mean±SEM. For gene expression microarrays, RNA was isolated by Trizol, purified further on RNeasy columns, and profiled using Affymetrix Human Gene 1.0 ST arrays (Affymetrix). Results were deposited under GEO Accession: GSE46575.
To discover the gene whose induction by atovaquone was responsible for mTOR inhibition, gene expression microarrays were performed in K562 and U266 cells. It was reasoned that induction of the causative factor must be common to all cell lines in which atovaquone inhibits the mTOR pathway. […] Of these, REDD1 is a known negative regulator of mTOR, whose activity is dependent on the TSC1/2-complex.

INA-6 cells = assay: Cell viability (Cell Titer Glo), INA-6; assay type: cell-based; conditions: 72 hours
Protocol: Western blotting was performed as previously described (Battle T E, Arbiser J, & Frank D A (2005) The natural product honokiol induces caspase dependent apoptosis in B-cell chronic lymphocytic leukemia (B-CLL) cells. Blood 106(2):690-697). Antibodies to phospho-MAPK (9101), total MAPK (9102), phospho-Y705 STAT3 (9131), phospho-S6 (2215), total S6 (2217), phospho-4E-BP1 (9451), total 4E-BP1 (9644), total RSK (9355), phospho-S6K (9234, 85 used at 1:5000), total S6K (2708), phospho-eIF2α (9721, used at 1:1000), total eIF2α (5324), ATF4 (11815, used at 1:1000), PDGFRβ (3169), IGF1Rβ (9750), EGFR (2232), and HER2 (2242) were from Cell Signaling Technology. Phospho-RSK antibody was from R&D (AF889). Antibodies to total STAT3 (sc-482) and gp130 (sc-656, used at 1:1000) were from Santa Cruz Biotechnology. Phospho-S727 STAT3 antibody was described previously (229). REDD1 antibody was from Proteintech (10638-1-AP, used at 1:1000). Antibody recognizing full-length and cleaved ATF6 was from Abcam (ab122897, used at 1:1000). Antibodies to tubulin (T5168) and beta actin (A5316) were from Sigma. All antibodies were used at 1:10000 dilution for western blot unless otherwise noted. […] Cell viability was measured as ATP-dependent luminescence by Cell Titer Glo (Promega). […]

For `O=C1C(O)=C([C@H]2CC[C@H](c3ccc(Cl)cc3)CC2)C(=O)c2ccccc21` [atovaquone, trans-2-[4-(4-chlorophenyl)cyclohexyl]-3-hydroxy-1,4-naphthalenedione], the “median survival of the treated animals” value [1] is listed as “increase in the median survival”, the tumor growth rate ([1]; from tumor volume approximately 100 mm^3) is listed as “prominent decrease in the growth rate” and the “side effects / tolerability” value [2] is listed as “side effects are minimal; also recorded: extremely well-tolerated in humans”. For the same molecule, the “gp130 mRNA expression” value (gp130 mRNA) was “not significantly changed”, the REDD1 expression (K562 and U266 cells) was “inducing the expression of REDD1” and the “viability of INA-6 cells at higher doses” value (INA-6 cells) was “complete loss of viability”. For the same molecule, the IC50 (INA-6 cells; INA-6) was 11.9 µM.
